From US10294202B2, “Pyrrolidinones as herbicides” (FMC Corporation, priority 2013, dated 2019) come the findings set out here.

In experiment [1] the test system is barnyardgrass. The experiment can be described thus: Test A pre-/postemergence herbicide test. In kind it is in vivo, Echinochloa crus-galli. In short, it runs like this: (§1)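 Planted in loam–sand blend; treated the same day preemergence by directed soil spray, while separately grown plants at one- to two-leaf stage got postemergence spray. Compared visually with untreated controls after approximately 10 days; 100 means complete control.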

For experiment [2], the system named is kochia. Kind of experiment: Test A pre-/postemergence herbicide test. In kind it is in vivo, Kochia scoparia. The method, boiled down:
as §1

The subject of experiment [3] is ragweed. Kind of experiment: Test A pre-/postemergence herbicide test. The experiment is classed as in vivo, Ambrosia elatior. The source says:
(§2) Seeds of plant species selected from bamyardgrass (Echinochloa crus-galli), kochia (Kochia scoparia), ragweed (common ragweed, Ambrosia elatior), ryegrass, Italian (Italian ryegrass, Lolium multiflorum), crabgrass, large (large crabgrass Digitaria sanguinalis), giant foxtail (Setaria faberii), morningglory (Ipomoea spp.), pigweed (Amaranthus retroflexus), velvetleaf (Abutilon theophrasti), wheat (Triticum aestivum), and corn (Zea mays) were planted into a blend of loam soil and sand and treated preemergence with a directed soil spray using test chemicals formulated in a non-phytotoxic solvent mixture which included a surfactant. At the same time, plants selected from these crop and weed species and also blackgrass (Alopecurus myosuroides), and galium (catchweed bedstraw, Galium aparine) were planted in pots containing the same blend of loam soil and sand and treated with postemergence applications of test chemicals formulated in the same manner. Plants ranged in height from 2 to 10 cm and were in the one- to two-leaf stage for the postemergence treatment. Treated plants and untreated controls were maintained in a greenhouse for approximately 10 days, after which time all treated plants were compared to untreated controls and visually evaluated for injury. Plant response ratings, summarized in Table A, are based on a 0 to 100 scale where 0 is no effect and 100 is complete control. A dash (-) response means no test result.

Experiment [4] has as its system ryegrass, Italian. Kind of experiment: Test A pre-/postemergence herbicide test. In kind it is in vivo, Lolium multiflorum.
Excerpt: as §2

Experiment [5] has as its system giant foxtail. The experiment can be described thus: Test A pre-/postemergence herbicide test. The experiment is classed as in vivo, Setaria faberii. The method, boiled down: as §1
The test system of experiment [6] is pigweed. Kind of experiment: Test A pre-/postemergence herbicide test. The experiment is classed as in vivo, Amaranthus retroflexus. The method, boiled down: as §1
Experiment [7] concerns wheat. The experiment can be described thus: Test A pre-/postemergence herbicide test. The experiment is classed as in vivo, Triticum aestivum. To be noted: Postemergence; for Wheat plant response rating (0 to 100 scale, 0 is no effect, 100 is complete control): 500 g ai/ha. In short, it runs like this: as §1
Experiment [8] has as its system corn. Kind of experiment: Test A pre-/postemergence herbicide test. In kind it is in vivo, Zea mays. The settings on record: Postemergence; for Corn plant response rating (0 to 100 scale, 0 is no effect, 100 is complete control): 500 g ai/ha. The method, boiled down: as §1
For experiment [9], the system named is blackgrass. Kind of experiment: Test A postemergence herbicide test. The experiment is classed as in vivo, Alopecurus myosuroides. To be noted: for Blackgrass plant response rating (0 to 100 scale, 0 is no effect, 100 is complete control): 500 g ai/ha. In short, it runs like this: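 Young potted plants in a loam–sand mix, one- to two-leaf stage and 2–10 cm tall, receive the test chemical postemergence and stay in a greenhouse for approximately 10 days. Injury is then judged by eye against untreated plants, scored 0 (none) to 100 (complete control).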

Experiment [10] deals with galium. The experiment can be described thus: Test A postemergence herbicide test. In kind it is in vivo, Galium aparine. The settings on record: for Galium plant response rating (0 to 100 scale, 0 is no effect, 100 is complete control): 500 g ai/ha. The source says:
At the same time, plants selected from these crop and weed species and also blackgrass (Alopecurus myosuroides), and galium (catchweed bedstraw, Galium aparine) were planted in pots containing the same blend of loam soil and sand and treated with postemergence applications of test chemicals formulated in the same manner. Plants ranged in height from 2 to 10 cm and were in the one- to two-leaf stage for the postemergence treatment. Treated plants and untreated controls were maintained in a greenhouse for approximately 10 days, after which time all treated plants were compared to untreated controls and visually evaluated for injury. Plant response ratings, summarized in Table A, are based on a 0 to 100 scale where 0 is no effect and 100 is complete control. A dash (-) response means no test result.

Where [11] appears, read: 125 g ai/ha, visual rating, 0 to 100 scale, 0 no effect, 100 complete control, approximately 10 days, preemergence.
The mark [12] stands for this setting: Postemergence, 125 g ai/ha, 0 to 100 scale, 0 is no effect, 100 is complete control.
[13] abbreviates: preemergence, 500 g ai/ha, 0 to 100 scale, 0 is no effect and 100 is complete control.
Where [14] appears, read: 125 g ai/ha, 0 to 100 scale, 0 is no effect, 100 is complete control.
The mark [15] stands for this setting: Postemergence, 1000 g ai/ha, 0 to 100 scale (0 no effect, 100 complete control).
Setting [16] is: preemergence, 1000 g ai/ha, 0 to 100 scale (0 no effect, 100 complete control).
[17] abbreviates: preemergence, 1000 g ai/ha, 0 to 100 scale.
Setting [18] is: 1000 g ai/ha, 0 to 100 scale (0 no effect, 100 complete control).

For `Cc1ccc(NC(=O)C2C(=O)NCC2c2cccc(C(F)(F)F)c2)cc1C(F)(F)F` (racemic) [Compound 186], the “Plant response rating, Barnyardgrass” value in experiment [1] (setting [11]), in experiment [1] (setting [12]) and in experiment [1] (setting [13]) was 0 each time. The “Barnyardgrass plant response rating (0 to 100 scale, 0 is no effect, 100 is complete control)” value in [1] (Postemergence, 500 g ai/ha) came to 0. Besides, the “Plant response rating, Kochia” value in experiment [2] (setting [11]), in [2] (setting [12]) and in [2] (setting [13]) was 0 in each case. Besides, the “Kochia plant response rating (0 to 100 scale, 0 is no effect, 100 is complete control)” value in [2] (Postemergence, 500 g ai/ha) was 0. The “Plant response rating, Ragweed” value in experiment [3] (setting [11]), in [3] (setting [12]) and in experiment [3] (setting [13]) was 0 in each case. Moreover, the “Ragweed plant response rating (0 to 100 scale, 0 is no effect, 100 is complete control)” value in experiment [3] (Postemergence, 500 g ai/ha) is reported as 0. Also, the “Plant response rating, Ryegrass, Italian” value in experiment [4] (setting [11]), in experiment [4] (setting [12]) and in [4] (setting [13]) was 0 in each case. The “Ryegrass, Italian plant response rating (0 to 100 scale, 0 is no effect, 100 is complete control)” value in [4] (Postemergence, 500 g ai/ha) is 0. In addition, the “Plant response rating, Foxtail, Giant” value in experiment [5] (setting [11]), in experiment [5] (setting [12]) and in experiment [5] (setting [13]) was 0 throughout. Also, in experiment [5] (Postemergence, 500 g ai/ha), the “Foxtail, Giant plant response rating (0 to 100 scale, 0 is no effect, 100 is complete control)” value is given as 0. Further, the “Plant response rating, Pigweed” value in [6] (setting [11]), in experiment [6] (setting [12]) and in experiment [6] (setting [13]) was 0 in each case. Further, the “Pigweed plant response rating (0 to 100 scale, 0 is no effect, 100 is complete control)” value in experiment [6] (Postemergence, 500 g ai/ha) was found to be 0. The “Plant response rating, Wheat” value in experiment [7] (setting [14]) worked out at 0. In addition, the “Wheat plant response rating (0 to 100 scale, 0 is no effect, 100 is complete control)” value in experiment [7] turned out to be 0. Further, the “Plant response rating, Corn” value in experiment [8] (setting [14]) is 0. Moreover, the “Corn plant response rating (0 to 100 scale, 0 is no effect, 100 is complete control)” value in experiment [8] is reported as 0. Besides, the “Plant response rating, Blackgrass” value in experiment [9] (setting [14]) is 0. Also, the “Blackgrass plant response rating (0 to 100 scale, 0 is no effect, 100 is complete control)” value in experiment [9] is 0. In [10] (setting [14]), the “Plant response rating, Galium” value was found to be 0. For the same compound, the “Galium plant response rating (0 to 100 scale, 0 is no effect, 100 is complete control)” value in experiment [10] was 0.
Turning to `COc1ccc(NC(=O)C2C(=O)NCC2c2cccc(C(F)(F)F)c2)cc1F` (racemic) [Compound 188], the “Plant response rating, Barnyardgrass” value in experiment [1] (setting [11]), in experiment [1] (setting [12]) and in [1] (setting [13]) was 0 throughout. The “Barnyardgrass plant response rating (0 to 100 scale, 0 is no effect, 100 is complete control)” value in experiment [1] (Postemergence, 500 g ai/ha) came to 0. Also, the “Plant response rating, Kochia” value in experiment [2] (setting [11]), in [2] (setting [12]) and in experiment [2] (setting [13]) was 0 throughout. Also, the “Kochia plant response rating (0 to 100 scale, 0 is no effect, 100 is complete control)” value in [2] (Postemergence, 500 g ai/ha) is 0. The “Plant response rating, Ragweed” value in [3] (setting [11]), in [3] (setting [12]) and in experiment [3] (setting [13]) was 0 throughout. In addition, in experiment [3] (Postemergence, 500 g ai/ha), the “Ragweed plant response rating (0 to 100 scale, 0 is no effect, 100 is complete control)” value is listed as 0. Further, the “Plant response rating, Ryegrass, Italian” value in experiment [4] (setting [11]), in experiment [4] (setting [12]) and in experiment [4] (setting [13]) was 0 in each case. For the same compound, in experiment [4] (Postemergence, 500 g ai/ha), the “Ryegrass, Italian plant response rating (0 to 100 scale, 0 is no effect, 100 is complete control)” value is 0. The “Plant response rating, Foxtail, Giant” value in experiment [5] (setting [11]), in experiment [5] (setting [12]) and in [5] (setting [13]) was 0 in each case. Moreover, the “Foxtail, Giant plant response rating (0 to 100 scale, 0 is no effect, 100 is complete control)” value in [5] (Postemergence, 500 g ai/ha) came to 0. For the same compound, the “Plant response rating, Pigweed” value in [6] (setting [11]), in [6] (setting [12]) and in experiment [6] (setting [13]) was 0 each time. Also, in experiment [6] (Postemergence, 500 g ai/ha), the “Pigweed plant response rating (0 to 100 scale, 0 is no effect, 100 is complete control)” value is 0. In addition, the “Plant response rating, Wheat” value in [7] (setting [14]) is given as 0. In experiment [7], the “Wheat plant response rating (0 to 100 scale, 0 is no effect, 100 is complete control)” value worked out at 0. For the same compound, the “Plant response rating, Corn” value in experiment [8] (setting [14]) was 0. Also, the “Corn plant response rating (0 to 100 scale, 0 is no effect, 100 is complete control)” value in experiment [8] is reported as 0. Besides, the “Plant response rating, Blackgrass” value in [9] (setting [14]) was 0. Moreover, in experiment [9], the “Blackgrass plant response rating (0 to 100 scale, 0 is no effect, 100 is complete control)” value is 0. Further, the “Plant response rating, Galium” value in [10] (setting [14]) stood at 0. Moreover, the “Galium plant response rating (0 to 100 scale, 0 is no effect, 100 is complete control)” value in experiment [10] was determined as 0.
With `O=C1NCC(c2cccc(-c3ccccc3C(F)(F)F)c2)C1C(=O)Nc1ccccc1C(F)(F)F` (stereo not drawn) [Compound 237], the “Plant response rating, Barnyardgrass” value is recorded as 20 in experiment [1] (setting [15]) and 60 in experiment [1] (setting [16]). Further, the “Plant response rating, Kochia” value in experiment [2] (setting [15]) and in experiment [2] (setting [17]) was 0 in each case. Moreover, the “Plant response rating, Ragweed” value in experiment [3] (setting [15]) and in experiment [3] (setting [17]) was 0 in each case. Also, the “Plant response rating, Ryegrass, Italian” value in experiment [4] (setting [15]) and in [4] (setting [17]) was 0 in each case. Also, the “Plant response rating, Foxtail, Giant” value in [5] (setting [15]) turned out to be 0; in [5] (setting [17]) it was 80. Further, the “Plant response rating, Pigweed” value in [6] (setting [15]) and in [6] (setting [17]) was 0 throughout. In addition, in experiment [7] (setting [18]), the “Plant response rating, Wheat” value amounted to 0. Also, the “Plant response rating, Corn” value in [8] (setting [18]) is listed as 0. Moreover, in experiment [9] (setting [18]), the “Plant response rating, Blackgrass” value came out at 0. Further, in experiment [10] (setting [18]), the “Plant response rating, Galium” value is given as 0.
Take `O=C1NCC(c2cccc(-c3ccccc3F)c2)C1C(=O)Nc1ccccc1C(F)(F)F` (stereo not drawn) [Compound 238]: the “Plant response rating, Barnyardgrass” value in [1] (setting [15]) is 30; in [1] (setting [16]) it was 50. The “Plant response rating, Kochia” value in [2] (setting [15]) and in experiment [2] (setting [17]) was 0 throughout. Also, the “Plant response rating, Ragweed” value in experiment [3] (setting [15]) and in experiment [3] (setting [17]) was 0 in each case. For the same compound, the “Plant response rating, Ryegrass, Italian” value in [4] (setting [15]) and in experiment [4] (setting [17]) was 0 each time. In addition, the “Plant response rating, Foxtail, Giant” value in [5] (setting [15]) was determined as 30; in experiment [5] (setting [17]), 90. The “Plant response rating, Pigweed” value in [6] (setting [15]) and in experiment [6] (setting [17]) was 0 in each case. The “Plant response rating, Wheat” value in [7] (setting [18]) amounted to 0. For the same compound, in [8] (setting [18]), the “Plant response rating, Corn” value came out at 0. The “Plant response rating, Blackgrass” value in [9] (setting [18]) is reported as 20. Moreover, in experiment [10] (setting [18]), the “Plant response rating, Galium” value is recorded as 20.
